Laboratory results published in patent publication US7056656B1, “Tat-derived oligourea and its method of production and use in high affinity and specific binding HIV-1 TAR RNA” (priority 1999, dated 2006).

Tests used:
[1] = molecular target: T1, proteinase K (Parengyodontium album, UniProt P06873); conditions: similar proteinase K treatment; cited from earlier work
[2] = system: HIV-1 TAR RNA (wild-type); test: Direct and competition electrophoretic mobility assays, oligourea/peptide-TAR RNA complexes; type: binding; conditions: for Kd: multiple sets of experiments, read-out: KD (equilibrium dissociation constant) for TAR RNA
Source text: (§1) FIG. 2A: Secondary structure of wild-type TAR RNA used in this study. Wild-type TAR RNA spans the minimal sequences that are required for Tat responsiveness in vivo ^14 and for in vitro binding of Tat-derived peptides.^9 Wild-type TAR contains two non-wild-type base pairs to increase transcription by T7 RNA polymerase. Mutant M0 TAR contained no bulge residue in its sequence. In mutant G26C, a base-pair in the upper stem of TAR RNA, G26-C39 was substituted by C26-G39. FIG. 2B: Electrophoretic mobility shift analysis for the Tat-derived oligourea binding to wild-type and trinucleotide bulge mutant (M0) TAR RNA. 5′-end labeled TAR RNAs (40 nM) were heated to 85° C. for three minutes mm and then cooled to room temperature in TK buffer (50 mM Tris-HCl pH 7.4), 20 mM KCl, 0.1% Triton X-100). The oligourea (150 nM) was added to wild-type or mutant TAR and incubated at room temperature for one hour. After adding 30% glycerol, the oligourea-RNA complexes were resolved on a non-denaturing 12% acrylamide gel and visualized by autoradiography or phosphorimaging. FIG. 2C: Specificity of the oligourea-TAR complex formation determined by competition experiments. Oligourea-RNA complexes were formed in the presence of increasing concentrations of unlabeled wild-type or mutant TAR RNAs. Concentrations of the competitor RNAs in lanes 3, 4, 5, 6 were 50, 100, 150, and 200 nM, respectively. Lanes 1 and 2 were marker lanes showing RNA and oligoureaRNA complexes. Oligourea-RNA complexes are labeled as R—P.
To compare the RNA-binding affinities of the oligourea to natural peptide, we synthesized a tat-derived peptide (Tyr47 to Arg57) containing the RNA-binding domain of Tat protein (FIG. 1). Dissociation constants of the Tat peptide-RNA complexes were determined from multiple sets of experiments under the same conditions used for oligourea-TAR RNA complexes. […] A relative dissociation constant (KREL) can be determined by measuring the ratios of wild-type Tat peptide to the oligourea dissociation constants (KD) for TAR RNA.

[3] = system: mutant TAR RNA without the bulge residues (M0); test: Electrophoretic mobility shift analysis with trinucleotide bulge mutant (M0) TAR RNA; type: binding, HIV-1; conditions: M0 TAR RNA 40 nM, oligourea 150 nM
Source text: as §1, with “Lanes 1 and 2 were marker lanes showing RNA and oligoureaRNA complexes. Oligourea-RNA complexes are labeled as R—P.” left out

[4] = system: HIV-1 TAR RNA (wild-type); test: Specificity of oligourea-TAR complex formation by competition with unlabeled TAR RNAs; type: binding
Source text: as §1
Specificity of the oligourea-TAR RNA complex formation was addressed by competition experiments (FIG. 2c).
Two base-pairs immediately above the pyrimidine bulge are critical for Tat recognition.^9 To determine whether the oligourea recognizes specific base-pairs in the stem region of TAR RNA or only a trinucleotide bulge containing RNA, we synthesized a TAR mutant where the G26-C39 base pair was substituted by a C26-G39 base-pair (FIG. 2a).

[5] = molecular target: T1, proteinase K; test: Proteinase K digestion of RNA crosslink products (protease stability); type: in vitro ADME; conditions: 55° C., fifteen minutes after UV irradiation
Protocol: FIG. 3. Site-specific photocrosslinking reaction of TAR RNA labeled with 4-thioUracil at position 23 with the oligourea. For photochemical reactions, RNA duplex was prepared by hybridizing two strands.^5,7 Strand 1 of the duplex was 5′-end labeled with 32p Preformed RNA duplexes (40 nM) in the absence or presence of the oligourea (100 nM) were irradiated ([…]) and analyzed by denaturing gels as described earlier.^5,7 Proteinase K digestion was performed at 55° C. for fifteen minutes after LW irradiation. R—R and R—P XL indicate the RNA—RNA and RNA-oligourea crosslink, respectively.
To probe the oligourea-RNA interactions and determine the proteolysis stability of oligourea, we synthesized TAR RNA containing 4-thioU at position 23 and performed photocrosslinking experiments as described earlier (FIG. 3).^5,7 Irradiation of the oligourea-RNA complex yields a new band with electrophoretic mobility less than that of the RNA (lane 4). Both the oligourea and UV (360 nm) irradiation are required for the formation of this crosslinked RNA-oligourea complex (see lanes 3 and 4). Since the crosslinked oligourea-RNA complex is stable to alkaline pH (9.5), high temperature (85° C.) and denaturing conditions (8M urea, 2% SDS), we conclude that a covalent bond is formed between TAR RNA and the oligourea during the crosslinking reaction.

[6] = system: Tat transactivation (HIV-1 LTR); test: Inhibition of Tat transactivation, CAT activity from integrated HIV-1 LTR of HL3TI cells; type: cell-based; conditions: luciferase as control
Protocol: FIG. 4. […] CAT activity expressed from the integrated HIV-1 LTR of HL3TI Cells with increasing amounts of oligourea is shown. Luciferase activity was a control experiment to monitor the transfection inhibition of pSV2Tat by the addition of oligourea. CAT and Luciferase activities were measured from multiple experiments and normalized to 100%.

[7] = system: Tat peptide (47-57), arginine-rich RNA-binding domain (HIV-1); test: EMSA; conditions: printed 0.78+0.05; same conditions as the oligourea
[8] = molecular target: Tat-derived oligourea (unnatural urea backbone carrying Tat 48-57 side chains) (HIV-1) (UniProt P04608); test: EMSA

T1 sequence (P06873 106-384): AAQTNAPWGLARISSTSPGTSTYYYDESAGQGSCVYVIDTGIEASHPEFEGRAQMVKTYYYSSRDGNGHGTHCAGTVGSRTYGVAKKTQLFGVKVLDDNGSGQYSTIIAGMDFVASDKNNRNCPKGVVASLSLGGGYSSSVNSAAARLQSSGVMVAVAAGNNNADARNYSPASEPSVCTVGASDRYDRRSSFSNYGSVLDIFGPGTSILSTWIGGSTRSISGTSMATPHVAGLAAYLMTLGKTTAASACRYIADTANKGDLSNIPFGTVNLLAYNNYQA

Tat: Tat of the Tat-TAR photocrosslink products from earlier cited work (ref. 5)
stability of Tat-TAR photocrosslink products to proteinase K treatment [1]: complete loss of RNA-protein crosslink

GRKKRRQRRR [oligourea]
relative dissociation constant KREL (ratio of wild-type Tat peptide KD to oligourea KD for TAR RNA) ([2]; wild-type TAR RNA): 7.09 | binding to TAR RNA (mobility shift) ([2]; wild-type TAR RNA 40 nM, oligourea 150 nM): able to bind TAR RNA | Kd ([2]; wild-type TAR RNA): 110 ± 70 nM | binding to mutant TAR RNA without the bulge residues [3]: failed to bind | competition by mutant TAR (G26C) for oligourea binding to TAR RNA ([4]; competitor G26C TAR RNA (G26-C39 replaced by C26-G39)): did not inhibit | competition by mutant TAR RNA without a trinucleotide bulge for oligourea binding to wild-type TAR RNA ([4]; competitor M0 TAR RNA 50-200 nM): not able to compete | competition by mutant TAR RNA with one base bulge for oligourea binding to wild-type TAR RNA ([4]; competitor one base bulge TAR RNA, data not shown): not able to compete | oligourea-RNA complex formation on addition of unlabeled wild-type TAR RNA ([4]; competitor wild-type TAR RNA 50-200 nM): inhibited | stability of RNA crosslink products to proteinase K digestion [5]: completely stable | Tat transactivation (CAT activity) with increasing amounts of oligourea [6]: Inhibition of Tat transactivation

Tat peptide (47–57): tat-derived peptide (Tyr47 to Arg57) containing the RNA-binding domain of Tat protein [reference compound]
Kd ([2]; wild-type TAR RNA): 780 nM

wild-type TAR RNA
Kd [7]: 780 nM | Kd [8]: 110 nM
